For 21 compounds, inhibition of growth and pest or weed control results are on record in patent US11180462B2, “Microbiocidal oxadiazole derivatives” (SYNGENTA PARTICIPATIONS AG, priority 2015, dated 2021).

Read-outs that look alike come from different tables or passages of the source.

The test system of assay [1] is Glomerella lagenarium (Colletotrichum lagenarium). In words: Fungicidal activity against Glomerella lagenarium (Colletotrichum lagenarium) liquid culture / cucumber / preventative (anthracnose). Format: cell-based. The conditions noted are these: Colletotrichum orbiculare, read-out: disease control. The method in brief: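 Percent activity against the untreated check was derived from photometric growth measurements made 2 to 7 days after conidia in potato dextrose broth were combined with compound at 20 ppm. Cultures were kept dark at 24 °C and 96% humidity.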

Assay [2] relates to Puccinia recondita f. Sp. Tritici. In words: Fungicidal activity against Puccinia recondita f. sp. tritici / wheat / leaf disc curative (brown rust). Format: in vivo. As to conditions: foliar, 24 h, read-out: disease control. As for the experimental part:
Leaf disks or leaf segments of various plant species are cut from plants grown in a greenhouse. The cut leaf disks or segments are placed in multiwell plates (24-well format) onto water agar. The leaf disks are sprayed with a test solution before (preventative) or after (curative) inoculation. Compounds to be tested are prepared as DMSO solutions (max. 10 mg/ml) which are diluted to the appropriate concentration with 0.025% Tween20 just before spraying. The inoculated leaf disks or segments are incubated under defined conditions (temperature, relative humidity, light, etc.) according to the respective test system. A single evaluation of disease level is carried out 3 to 14 days after inoculation, depending on the pathosystem. Percent disease control relative to the untreated check leaf disks or segments is then calculated.
Fungicidal Activity Against Puccinia recondita f. Sp. Tritici/Wheat/Leaf Disc Curative (Brown Rust)
Wheat leaf segments cv. Kanzler are placed on agar in multiwell plates (24-well format). The leaf segments are then inoculated with a spore suspension of the fungus. Plates were stored in darkness at 19° C. and 75% relative humidity. The formulated test compound diluted in water was applied 1 day after inoculation. The leaf segments were incubated at 19° C. and 75% relative humidity under a light regime of 12 hours light/12 hours darkness in a climate cabinet and the activity of a compound was assessed as percent disease control compared to untreated when an appropriate level of disease damage appears in untreated check leaf segments (6 to 8 days after application).
The following compounds at 200 ppm in the applied formulation give at least 80% disease control in this test when compared to untreated control leaf disks under the same conditions, which show extensive disease development.

Assay [3] has the same test system. Nature of the assay: Fungicidal activity against Puccinia recondita f. sp. tritici / wheat / leaf disc preventative (brown rust). Format: in vivo. As to conditions: foliar, read-out: disease control. The method in brief: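 Percent disease control relative to untreated check segments is scored once disease develops, 7 to 9 days after application. Wheat cv. Kanzler segments receive compound spray (200 ppm in formulation) one day before spore inoculation, then sit at 19° C. and 75% rh under 12 h light/12 h dark.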

[4] abbreviates: 20 ppm in the applied formulation, liquid culture (PDB), growth inhibition measured photometrically after 3 to 4 days, compared to untreated control.
Setting [5] is: 200 ppm in the applied formulation, wheat leaf segments, curative (applied 1 day after inoculation), compared to untreated control leaf disks.
[6] abbreviates: 200 ppm in the applied formulation, wheat leaf segments, preventative, compared to untreated control leaf disks.

As for `CCN(Cc1ccc(-c2noc(C(F)(F)F)n2)cc1)C(=O)N(C)CC#N` [Compound 3.88, 1-(cyanomethyl)-3-ethyl-1-methyl-3-[[4-[5-(trifluoromethyl)-1,2,4-oxadiazol-3-yl]phenyl]methyl]urea], the inhibition of growth at 20 ppm in assay [1] (setting [4]) was at least 80%. Besides, the pest or weed control at 200 ppm in assay [2] (setting [5]) and in assay [3] (setting [6]) was at least 80% in each case.

Consider `CC=CC(=O)N(Cc1ccc(-c2noc(C(F)(F)F)n2)cc1)C(C)CC` (stereo not shown) [Compound 1.370, N-sec-butyl-N-[[4-[5-(trifluoromethyl)-1,2,4-oxadiazol-3-yl]phenyl]methyl] but-2-enamide], for which the inhibition of growth at 20 ppm in assay [1] (setting [4]) was at least 80%. Moreover, the pest or weed control at 200 ppm in assay [2] (setting [5]) and in assay [3] (setting [6]) was at least 80% each time.

For the compound `COCCOCC(=O)N(CCOC)Cc1ccc(-c2noc(C(F)(F)F)n2)cc1` [Compound 1.340, 2-(2-methoxyethoxy)-N-(2-methoxyethyl)-N-[[4-[5-(trifluoromethyl)-1,2,4-oxadiazol-3-yl]phenyl]methyl]-acetamide], the inhibition of growth at 20 ppm in assay [1] (setting [4]) was at least 80%. The pest or weed control at 200 ppm in assay [2] (setting [5]) and in assay [3] (setting [6]) was at least 80% in each case.

Consider `O=C(C1CC1)N(CCO)Cc1ccc(-c2noc(C(F)(F)F)n2)cc1` [Compound 1.609, N-(2-hydroxyethyl)-N-[[4-[5-(trifluoromethyl)-1,2,4-oxadiazol-3-yl]phenyl]methyl]-cyclopropane-carboxamide], for which the inhibition of growth at 20 ppm in assay [1] (setting [4]) was at least 80%. Further, the pest or weed control at 200 ppm in assay [2] (setting [5]) and in assay [3] (setting [6]) was at least 80% in each case.

Consider `CCN(Cc1ccc(-c2noc(C(F)(F)F)n2)cc1)C(=O)CCl` [Compound 1.502, 2-chloro-N-ethyl-N-[[4-[5-(trifluoromethyl)-1,2,4-oxadiazol-3-yl]phenyl]methyl]-acetamide], for which, in assay [1] (setting [4]), the inhibition of growth at 20 ppm is at least 80%. Besides, the pest or weed control at 200 ppm in assay [2] (setting [5]) and in assay [3] (setting [6]) was at least 80% each time.

Consider `COCCN(CCOC)C(=O)N(C)Cc1ccc(-c2noc(C(F)(F)F)n2)cc1` [Compound 3.84, 1,1-bis(2-methoxyethyl)-3-methyl-3-[[4-[5-(trifluoromethyl)-1,2,4-oxadiazol-3-yl]phenyl]methyl]urea], for which the inhibition of growth at 20 ppm in assay [1] (setting [4]) is at least 80%. Moreover, the pest or weed control at 200 ppm in assay [2] (setting [5]) and in assay [3] (setting [6]) was at least 80% in each case.

With `CON(Cc1ccc(-c2noc(C(F)(F)F)n2)cc1)C(=O)Oc1ccccc1` [Compound 2.6, phenyl N-methoxy-N-[[4-[5-(trifluoromethyl)-1,2,4-oxadiazol-3-yl]phenyl]methyl]-carbamate], the inhibition of growth at 20 ppm in assay [1] is at least 80%. Also, the pest or weed control at 200 ppm in assay [2] and in assay [3] was at least 80% throughout.

Consider `CC1CC1C(=O)N(Cc1ccc(-c2noc(C(F)(F)F)n2)cc1)Cc1ccco1` (stereo not shown) [Compound 1.460, N-(2-furylmethyl)-2-methyl-N-[[4-[5-(trifluoromethyl)-1,2,4-oxadiazol-3-yl]phenyl]methyl]-cyclopropane-carboxamide], for which the inhibition of growth at 20 ppm in assay [1] (setting [4]) was at least 80%. The pest or weed control at 200 ppm in assay [2] (setting [5]) and in assay [3] (setting [6]) was at least 80% each time.

Consider `COCCN(Cc1ccc(-c2noc(C(F)(F)F)n2)cc1)C(=O)C1CSC1` [Compound 1.334], for which the inhibition of growth at 20 ppm in assay [1] (setting [4]) was at least 80%. The pest or weed control at 200 ppm in assay [2] (setting [5]) and in assay [3] (setting [6]) was at least 80% in each case.

As for `O=C(C1CCCO1)N(Cc1ccc(-c2noc(C(F)(F)F)n2)cc1)CC1CCCO1` (stereo not shown) [Compound 1.442, N-(tetrahydrofuran-2-ylmethyl)-N-[[4-[5-(trifluoromethyl)-1,2,4-oxadiazol-3-yl]phenyl]methyl]-tetrahydrofuran-2-carboxamide], the inhibition of growth at 20 ppm in assay [1] (setting [4]) is at least 80%. Further, the pest or weed control at 200 ppm in assay [2] (setting [5]) and in assay [3] (setting [6]) was at least 80% throughout.

For `CCN(Cc1ccc(-c2noc(C(F)(F)F)n2)cc1)C(=O)N1CCCO1` [Compound 3.87, N-ethyl-N-[[4-[5-(trifluoromethyl)-1,2,4-oxadiazol-3-yl]phenyl]methyl]-isoxazolidine-2-carboxamide], the inhibition of growth at 20 ppm in assay [1] (setting [4]) was at least 80%. Also, the pest or weed control at 200 ppm in assay [2] (setting [5]) and in assay [3] (setting [6]) was at least 80% in each case.

On to `CCN(Cc1ccc(-c2noc(C(F)(F)F)n2)cc1)C(=O)N(C)C1(COC)CC1` [Compound 3.95, 1-ethyl-3-[1-(methoxymethyl)-cyclopropyl]-3-methyl-1-[[4-[5-(trifluoromethyl)-1,2,4-oxadiazol-3-yl]phenyl]methyl]urea], for which, in assay [1] (setting [4]), the inhibition of growth at 20 ppm is at least 80%. Moreover, the pest or weed control at 200 ppm in assay [2] (setting [5]) and in assay [3] (setting [6]) was at least 80% throughout.

`CCOC(=O)CNC(=O)N(Cc1ccc(-c2noc(C(F)(F)F)n2)cc1)OC` [Compound 3.49, ethyl 2-[[methoxy-[[4-[5-(trifluoromethyl)-1,2,4-oxadiazol-3-yl]phenyl]methyl]-carbamoyl]-amino]acetate]: the inhibition of growth at 20 ppm in assay [1] (setting [4]) is at least 80%. For the same compound, the pest or weed control at 200 ppm in assay [2] (setting [5]) and in assay [3] (setting [6]) was at least 80% in each case.

As for `CC1(C(=O)N(Cc2ccc(-c3noc(C(F)(F)F)n3)cc2)CC2CCCO2)CC1` (stereo not shown) [Compound 1.431, 1-methyl-N-(tetrahydrofuran-2-ylmethyl)-N-[[4-[5-(trifluoromethyl)-1,2,4-oxadiazol-3-yl]phenyl]methyl]-cyclopropane-carboxamide], the inhibition of growth at 20 ppm in assay [1] (setting [4]) was at least 80%. In addition, the pest or weed control at 200 ppm in assay [2] (setting [5]) and in assay [3] (setting [6]) was at least 80% in each case.

Consider `CCN(Cc1ccc(-c2noc(C(F)(F)F)n2)cc1)C(=O)N(CC)C1CC1` [Compound 3.89, 1-cyclopropyl-1,3-diethyl-3-[[4-[5-(trifluoromethyl)-1,2,4-oxadiazol-3-yl]phenyl]methyl]urea], for which the inhibition of growth at 20 ppm in assay [1] (setting [4]) was at least 80%. For the same compound, the pest or weed control at 200 ppm in assay [2] (setting [5]) and in assay [3] (setting [6]) was at least 80% each time.

On to `CON(Cc1ccc(-c2noc(C(F)(F)F)n2)cc1)C(=O)C1CC1c1ccccc1` (stereo not shown) [Compound 1.25, N-methoxy-2-phenyl-N-[[4-[5-(trifluoromethyl)-1,2,4-oxadiazol-3-yl]phenyl]methyl]-cyclopropane-carboxamide], for which the inhibition of growth at 20 ppm in assay [1] (setting [4]) is at least 80%. Besides, the pest or weed control at 200 ppm in assay [2] (setting [5]) and in assay [3] (setting [6]) was at least 80% in each case.

Consider `CON(Cc1ccc(-c2noc(C(F)(F)F)n2)cc1)C(=O)NCC(C)(C)C` [Compound 3.10, 3-(2,2-dimethylpropyl)-1-methoxy-1-[[4-[5-(trifluoromethyl)-1,2,4-oxadiazol-3-yl]phenyl]methyl]urea], for which the inhibition of growth at 20 ppm in assay [1] (setting [4]) was at least 80%. Besides, the pest or weed control at 200 ppm in assay [2] (setting [5]) and in assay [3] (setting [6]) was at least 80% throughout.

`CCC(C)N(Cc1ccc(-c2noc(C(F)(F)F)n2)cc1)C(=O)C1CC1(F)F` (stereo not shown) [Compound 1.371, 2,2-difluoro-N-sec-butyl-N-[[4-[5-(trifluoromethyl)-1,2,4-oxadiazol-3-yl]phenyl]methyl]-cyclopropane-carboxamide]: in assay [1] (setting [4]), the inhibition of growth at 20 ppm is at least 80%. Also, the pest or weed control at 200 ppm in assay [2] (setting [5]) and in assay [3] (setting [6]) was at least 80% throughout.

As to `CC=C(C)C(=O)N(Cc1ccc(-c2noc(C(F)(F)F)n2)cc1)CC1CCCO1` (stereo not shown) [Compound 1.417, 2-methyl-N-(tetrahydrofuran-2-ylmethyl)-N-[[4-[5-(trifluoromethyl)-1,2,4-oxadiazol-3-yl]phenyl]methyl]but-2-enamide], the inhibition of growth at 20 ppm in assay [1] (setting [4]) was at least 80%. The pest or weed control at 200 ppm in assay [2] (setting [5]) and in assay [3] (setting [6]) was at least 80% in each case.

In the case of `CON(Cc1ccc(-c2noc(C(F)(F)F)n2)cc1)C(=O)CN` [Compound 1.788, [2-[methoxy-[[4-[5-(trifluoromethyl)-1,2,4-oxadiazol-3-yl]phenyl]methyl]-amino]-2-oxo-ethyl]ammonium; chloride], the pest or weed control at 200 ppm in assay [2] (setting [5]) and in assay [3] (setting [6]) was at least 80% throughout.

Take `CON(Cc1ccc(-c2noc(C(F)(F)F)n2)nc1)C(=O)C1CCCO1` (stereo not shown) [Compound 1.789, N-methoxy-N-[[6-[5-(trifluoromethyl)-1,2,4-oxadiazol-3-yl]-3-pyridyl]methyl]-tetrahydrofuran-2-carboxamide]: the pest or weed control at 200 ppm in assay [2] (setting [5]) and in assay [3] (setting [6]) was at least 80% throughout.
